# From US20260053932A1, “COMPOUNDS AND METHODS FOR THE TARGETED DEGRADATION OF ANDROGEN RECEPTOR AND ASSOCIATED METHODS OF USE” (Arvinas Operations, Inc., priority 2020, published 2026)
# System: androgen receptor (AR) in LNCaP and/or VCaP cells
# Assay: Androgen Receptor ELISA assay (AR degradation)
# Format: cell-based
# Details: degradation of AR ELISA in LNCaP and/or VCaP cells; Table 2C; read-out: DC50 Code*
# Procedure, shortened: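 VCaP cells grown ≥3 days, then treated 5 h with compound in media containing 1 nM R1881 (10× stock). Cells lysed and AR quantified by sandwich ELISA (mouse AR detection Ab, HRP anti-mouse, TMB). DC50 and Dmax derived from AR degradation.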
row,Structure (SMILES),DC50 [nM]
1,"COc1cc(O[C@H]2C(C)(C)[C@H](NC(=O)c3cnc(N4CCC(CN(C(C)C)[C@H]5C[C@H](Oc6cc(OC)c7c(c6)C(=O)N(C6CCC(=O)NC6=O)C7=O)C5)CC4)cn3)C2(C)C)ccc1C#N (some centres unmarked) [compound 98, N-((1r,3r)-3-(4-cyano-3-methoxyphenoxy)-2,2,4,4-tetramethylcyclobutyl)-5-(4-((((1r,3r)-3-((2-(2,6-dioxopiperidin-3-yl)-7-methoxy-1,3-dioxoisoindolin-5-yl)oxy)cyclobutyl) (isopropyl)amino)methyl)piperidin-1-yl)pyrazine-2-carboxamide]",< 1
2,"Cc1cc(O[C@H]2C(C)(C)[C@H](NC(=O)c3cnc(N4CCC(CN5CC(Oc6ccc7c(c6)C(=O)N(C6CCC(=O)NC6=O)C7=O)C5)CC4)cn3)C2(C)C)cc(C)c1C#N (some centres unmarked) [compound 99, N-((1r,3r)-3-(4-cyano-3,5-dimethylphenoxy)-2,2,4,4-tetramethylcyclobutyl)-5-(4-((3-((2-(2,6-dioxopiperidin-3-yl)-1,3-dioxoisoindolin-5-yl)oxy)azetidin-1-yl)methyl)piperidin-1-yl)pyrazine-2-carboxamide]",< 1
3,"COCCN(CC1CCN(c2ccc(C(=O)N[C@H]3C(C)(C)[C@H](Oc4ccc(C#N)c(OC)c4)C3(C)C)nn2)CC1)[C@H]1C[C@H](Oc2cc(OC)c3c(c2)C(=O)N(C2CCC(=O)NC2=O)C3=O)C1 (some centres unmarked) [compound 100, N-((1r,3r)-3-(4-cyano-3-methoxyphenoxy)-2,2,4,4-tetramethylcyclobutyl)-6-(4-((((1r,3r)-3-((2-(2,6-dioxopiperidin-3-yl)-7-methoxy-1,3-dioxoisoindolin-5-yl)oxy)cyclobutyl)(2-methoxyethyl)amino)methyl)piperidin-1-yl)pyridazine-3-carboxamide]",< 1
4,"COCCN(CC1CCN(c2ccc(C(=O)NC3C(C)(C)C(Oc4ccc(C#N)c(OC)c4)C3(C)C)cc2)CC1)C1CC(Oc2ccc3c(c2)C(=O)N([C@@H]2CCC(=O)NC2=O)C3=O)C1 (some centres unmarked) [compound 101, N-((1r,3r)-3-(4-cyano-3-methoxyphenoxy)-2,2,4,4-tetramethylcyclobutyl)-4-(4-((((1r,3r)-3-((2-(2,6-dioxopiperidin-3-yl)-1,3-dioxoisoindolin-5-yl)oxy)cyclobutyl)(2-methoxyethyl)amino)methyl)piperidin-1-yl)benzamide]",< 1
5,"COc1cc(O[C@H]2C(C)(C)[C@H](NC(=O)c3ccc(N4CCC(CN(C(C)C)[C@H]5C[C@H](Oc6cc(OC)c7c(c6)C(=O)N(C6CCC(=O)NC6=O)C7=O)C5)CC4)nn3)C2(C)C)ccc1C#N (some centres unmarked) [compound 102, N-((1r,3r)-3-(4-cyano-3-methoxyphenoxy)-2,2,4,4-tetramethylcyclobutyl)-6-(4-((((1r,3r)-3-((2-(2,6-dioxopiperidin-3-yl)-7-methoxy-1,3-dioxoisoindolin-5-yl)oxy)cyclobutyl) (isopropyl)amino)methyl)piperidin-1-yl)pyridazine-3-carboxamide]",< 1
6,"CC(C)Oc1cc(N2CCN(CC3CCN(c4ncc(C(=O)N[C@H]5C(C)(C)[C@H](Oc6ccc(C#N)c(Cl)c6)C5(C)C)cn4)CC3)CC2)cc2c1C(=O)N(C1CCC(=O)NC1=O)C2=O (some centres unmarked) [compound 103, N-((1r,3r)-3-(3-chloro-4-cyanophenoxy)-2,2,4,4-tetramethylcyclobutyl)-2-(4-((4-(2-(2,6-dioxopiperidin-3-yl)-7-isopropoxy-1,3-dioxoisoindolin-5-yl)piperazin-1-yl)methyl)piperidin-1-yl)pyrimidine-5-carboxamide]",< 1
7,"Cc1cc(O[C@H]2C(C)(C)[C@H](NC(=O)c3ccc(N4CCC(CN(C(C)C)[C@H]5C[C@H](Oc6ccc7c(c6)C(=O)N(C6CCC(=O)NC6=O)C7=O)C5)CC4)cc3)C2(C)C)cc(C)c1C#N (some centres unmarked) [compound 104, N-((1r,3r)-3-(4-cyano-3,5-dimethylphenoxy)-2,2,4,4-tetramethylcyclobutyl)-4-(4-((((1r,3r)-3-((2-(2,6-dioxopiperidin-3-yl)-1,3-dioxoisoindolin-5-yl)oxy)cyclobutyl)(isopropyl)amino)methyl)piperidin-1-yl)benzamide]",< 1
8,"COCCN(CC1CCN(c2ccc(C(=O)N[C@H]3C(C)(C)[C@H](Oc4ccc(C#N)c(Cl)c4)C3(C)C)cc2)CC1)[C@H]1C[C@H](Oc2cc(OC)c3c(c2)C(=O)N(C2CCC(=O)NC2=O)C3=O)C1 (some centres unmarked) [compound 105, N-((1r,3r)-3-(3-chloro-4-cyanophenoxy)-2,2,4,4-tetramethylcyclobutyl)-4-(4-((((1r,3r)-3-((2-(2,6-dioxopiperidin-3-yl)-7-methoxy-1,3-dioxoisoindolin-5-yl)oxy)cyclobutyl)(2-methoxyethyl)amino)methyl)piperidin-1-yl)benzamide]",< 1
9,"COCCN(CC1CCN(c2ccc(C(=O)N[C@H]3C(C)(C)[C@H](Oc4cc(C)c(C#N)c(C)c4)C3(C)C)cc2)CC1)[C@H]1C[C@H](Oc2cc(OC)c3c(c2)C(=O)N(C2CCC(=O)NC2=O)C3=O)C1 (some centres unmarked) [compound 106, N-((1r,3r)-3-(4-cyano-3,5-dimethylphenoxy)-2,2,4,4-tetramethylcyclobutyl)-4-(4-((((1r,3r)-3-((2-(2,6-dioxopiperidin-3-yl)-7-methoxy-1,3-dioxoisoindolin-5-yl)oxy)cyclobutyl)(2-methoxyethyl)amino)methyl)piperidin-1-yl)benzamide]",< 1
10,"CC1(C)[C@H](NC(=O)c2ccc(N3CC4CN(CC5CCN(c6ccc7c(c6)C(=O)N(C6CCC(=O)NC6=O)C7=O)CC5)CC4C3)cc2)C(C)(C)[C@H]1Oc1ccc(C#N)c(Cl)c1 (some centres unmarked) [compound 107, N-((1r,3r)-3-(3-chloro-4-cyanophenoxy)-2,2,4,4-tetramethylcyclobutyl)-4-(5-((1-(2-(2,6-dioxopiperidin-3-yl)-1,3-dioxoisoindolin-5-yl)piperidin-4-yl)methyl)hexahydropyrrolo [3,4-c]pyrrol-2(1H)-yl)benzamide]",< 1
11,"CC(C)N(CC1CCN(c2ncc(C(=O)N[C@H]3C(C)(C)[C@H](Oc4ccc(C#N)c(C#N)c4)C3(C)C)cn2)CC1)[C@H]1C[C@H](Oc2ccc3c(c2)C(=O)N(C2CCC(=O)NC2=O)C3=O)C1 (some centres unmarked) [compound 108, N-((1r,3r)-3-(3,4-dicyanophenoxy)-2,2,4,4-tetramethylcyclobutyl)-2-(4-((((1r,3r)-3-((2-(2,6-dioxopiperidin-3-yl)-1,3-dioxoisoindolin-5-yl)oxy)cyclobutyl) (isopropyl)amino)methyl)piperidin-1-yl)pyrimidine-5-carboxamide]",< 1
12,"Cc1cc(O[C@H]2C(C)(C)[C@H](NC(=O)c3cnc(N4CCC(CN(CC(F)F)[C@H]5C[C@H](Oc6ccc7c(c6)C(=O)N(C6CCC(=O)NC6=O)C7)C5)CC4)nc3)C2(C)C)cc(C)c1C#N (some centres unmarked) [compound 109, N-((1r,3r)-3-(4-cyano-3,5-dimethylphenoxy)-2,2,4,4-tetramethylcyclobutyl)-2-(4-(((2,2-difluoroethyl)((1r,3r)-3-((2-(2,6-dioxopiperidin-3-yl)-3-oxoisoindolin-5-yl)oxy)cyclobutyl)amino)methyl)piperidin-1-yl)pyrimidine-5-carboxamide]",< 1
13,"Cc1cc(O[C@H]2C(C)(C)[C@H](NC(=O)c3ccc(N4CCC(CN(C(C)C)[C@H]5C[C@H](Oc6ccc7c(c6)C(=O)N(C6CCC(=O)NC6=O)C7=O)C5)CC4)nn3)C2(C)C)cc(C)c1C#N (some centres unmarked) [compound 110, N-((1r,3r)-3-(4-cyano-3,5-dimethylphenoxy)-2,2,4,4-tetramethylcyclobutyl)-6-(4-((((1r,3r)-3-((2-(2,6-dioxopiperidin-3-yl)-1,3-dioxoisoindolin-5-yl)oxy)cyclobutyl) (isopropyl)amino)methyl)piperidin-1-yl)pyridazine-3-carboxamide]",< 1
14,"CC1(C)[C@H](NC(=O)c2ccc(N3CCC(CCN4CC5CN(c6ccc7c(c6)C(=O)N(C6CCC(=O)NC6=O)C7=O)CC5C4)C3)cc2)C(C)(C)[C@H]1Oc1ccc(C#N)c(Cl)c1 (some centres unmarked) [compound 111, N-((1r,3r)-3-(3-chloro-4-cyanophenoxy)-2,2,4,4-tetramethylcyclobutyl)-4-(3-(2-(5-(2-(2,6-dioxopiperidin-3-yl)-1,3-dioxoisoindolin-5-yl)hexahydropyrrolo[3,4-c]pyrrol-2(1H)-yl)ethyl)pyrrolidin-1-yl)benzamide]",< 1
15,"Cc1cc(O[C@H]2C(C)(C)[C@H](NC(=O)c3cnc(N4CCC(CN(C(C)C)[C@H]5C[C@H](Oc6ccc7c(c6)C(=O)N(C6CCC(=O)NC6=O)C7=O)C5)CC4)cn3)C2(C)C)cc(C)c1C#N (some centres unmarked) [compound 112, N-((1r,3r)-3-(4-cyano-3,5-dimethylphenoxy)-2,2,4,4-tetramethylcyclobutyl)-5-(4-((((1r,3r)-3-((2-(2,6-dioxopiperidin-3-yl)-1,3-dioxoisoindolin-5-yl)oxy)cyclobutyl) (isopropyl)amino)methyl)piperidin-1-yl)pyrazine-2-carboxamide]",< 1
16,"CC(C)N(CC1CCN(c2cnc(C(=O)N[C@H]3C(C)(C)[C@H](Oc4ccc(C#N)c(Cl)c4)C3(C)C)cn2)CC1)[C@H]1C[C@H](Oc2ccc3c(c2)CN(C2CCC(=O)NC2=O)C3=O)C1 (some centres unmarked) [compound 113, N-((1r,3r)-3-(3-chloro-4-cyanophenoxy)-2,2,4,4-tetramethylcyclobutyl)-5-(4-((((1r,3r)-3-((2-(2,6-dioxopiperidin-3-yl)-1-oxoisoindolin-5-yl)oxy)cyclobutyl) (isopropyl)amino)methyl)piperidin-1-yl)pyrazine-2-carboxamide]",< 1
17,"CC1(C)[C@H](NC(=O)c2ccc(N3CCC(CN4CC5CN(c6ccc7c(c6)C(=O)N(C6CCC(=O)NC6=O)C7=O)CC5C4)CC3)cc2)C(C)(C)[C@H]1Oc1ccc(C#N)c(Cl)c1 (some centres unmarked) [compound 114, N-((1r,3r)-3-(3-chloro-4-cyanophenoxy)-2,2,4,4-tetramethylcyclobutyl)-4-(4-((5-(2-(2,6-dioxopiperidin-3-yl)-1,3-dioxoisoindolin-5-yl)hexahydropyrrolo[3,4-c]pyrrol-2(1H)-yl)methyl)piperidin-1-yl)benzamide]",< 1
